This note sets out measurements from US20250019385A1, “SPIROCYCLIC ANNULATED 2-AMINO-3-CYANO THIOPHENES AND DERIVATIVES FOR THE TREATMENT OF CANCER” (Boehringer Ingelheim International GmbH, priority 2023, published 2025).

pIC50: −log10 of the molar value.

Sequence of KRAS (G12C)::SOS1 protein-protein interaction (P01116 other isoform, or with tags, fused parts or gaps G12C/C51S/C80L/C118S): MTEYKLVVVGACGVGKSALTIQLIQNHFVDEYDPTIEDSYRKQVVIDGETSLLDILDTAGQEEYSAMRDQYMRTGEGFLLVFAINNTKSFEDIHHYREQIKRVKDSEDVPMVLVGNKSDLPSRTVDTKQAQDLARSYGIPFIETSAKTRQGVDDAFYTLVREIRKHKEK

This test addresses KRAS (G12C)::SOS1 protein-protein interaction (Homo sapiens (Human), UniProt P01116, C118S/C51S/C80L/G12C). Nature of the test: KRAS::SOS1 AlphaScreen binding assay (KRAS G12C). As to conditions: GDP. The source says: This assay can be used to examine the potency with which compounds according to the invention binding to (mutated) KRAS inhibit the protein-protein interaction between SOS1 and (mutated) KRAS e.g. KRAS G12C, KRAS G12D. […] Low IC50 values in this assay setting are indicative of strong inhibition of protein-protein interaction between SOS1 and KRAS:
These assays measure the inhibitory effect of compounds on KRAS mutant protein-protein interactions using the Alpha Screen technology by Perkin Elmer.
The following (mutant) enzyme forms of KRAS and interacting proteins are used in these assays at the given concentrations:
KRAS (G12C) 1-169, N-terminal 6His-tag for purification, cleaved off, C-terminal avi-tag, biotinylated, mutations: C51S, C80L, C118S (in house); final assay concentration 7.5 nM and SOS1 564-1049, N-terminal 229 GST-tag, TEV cleavage site (Viva Biotech Ltd); final assay concentration 5 nM;
Test compounds dissolved in DMSO are dispensed onto assay plates (Proxiplate 384 PLUS, white, PerkinElmer; 6008289) using an Access Labcyte Workstation with the Labcyte Echo 55x. For the chosen highest assay concentration of 100 μM, 150 nL of compound solution are transferred from a 10 mM DMSO compound stock solution. A series of eleven fivefold dilutions per compound are transferred to the assay plate, compound dilutions are tested in duplicates. DMSO are added as backfill to a total volume of 150 nL.
The assays run on a fully automated robotic system in a darkened room below 100 Lux. To 150 nl of compound dilution 10 μl of a mix including KRAS mutant protein, SOS1 (final assay concentrations see above) and GDP nucleotide (Sigma G7127; final assay concentration 10 μM) in assay buffer (1×PBS, 0.1% BSA, 0.05% Tween 20) are added into columns 1-24.
After 30 minutes incubation time 5 μl of Alpha Screen bead mix in assay buffer are added into columns 1-23. Bead mix consists of AlphaLISA Glutathione Acceptor Beads (PerkinElmer, Cat No AL109) and AlphaScreen Streptavidin Donor Beads (PerkinElmer Cat No 6760002) in assay buffer at a final assay concentration of 10 μg/mL each.
Plates are kept at room temperature in a darkened incubator. After an additional 60 minutes incubation time the signal is measured in a PerkinElmer Envision HTS Multilabel Reader using the AlphaScreen specs from PerkinElmer.
Each plate contains up to 16 wells of a negative control depending on the dilution procedure (platewise or serial) (DMSO instead of test compound; with KRAS mutant::SOS1 GOP mix and bead mix; column 23) and 16 wells of a positive control (DMSO instead of test compound; with KRAS mutant::SOS1 GOP mix w/o bead mix; column 24).
As internal control known inhibitors of KRAS mutant::SOS1 interaction can be measured on each compound plate.
IC50 values are calculated and analyzed with Boehringer Ingelheim's MEGALAB C50 application using a 4 parametric logistic model.
Tables of example compounds disclosed herein contain IC50 values determined using the above assays (see Table 43).
(In general: Alpha assays give light when donor and acceptor beads are brought close together.)
Turning to `CO[C@@H]1C[C@@H]([C@H](C)Oc2nc(-c3noc4c3CCC[C@@]43CCCc4sc(N)c(C#N)c43)nc3c2COC[C@]32CCOC2)N(C)C1` [II-11], the pIC50 – broadly, the negative decadic logarithm of the IC50, by convention in mol/L – was 8.70. In the case of `CCn1c(=O)n([C@@H]2CCCOC2)c2nc(-c3onc4c3CCC[C@@]43CCCc4sc(N)c(C#N)c43)nc(OCC34CCCN3CCC4)c21` [I-34] it was 8.22. In the case of `C[C@@H]1COC[C@H](n2c(=O)n(C)c3c(O[C@@H](C)[C@@H]4CCCN4C)nc(-c4onc5c4CCC[C@@]54CCCc5sc(N)c(C#N)c54)nc32)C1` [I-44] it was 8.70; in that of `C[C@H](Oc1nc(-c2noc3c2CCC[C@@]32CCCc3sc(N)c(C#N)c32)nc2c1CCC21CCOC1)[C@@H]1CCCN1C` (some centres unmarked) [II-18], 8.52; in that of `C[C@H](Oc1nc(-c2onc3c2CCC[C@@]32CCCc3sc(N)c(C#N)c32)nc2c1n(C)c(=O)n2[C@H]1CC2CCC1O2)[C@@H]1CCCN1C` (some centres unmarked) [I-17], 8.70. Take `CO[C@H]1CCN(C)[C@@H]1[C@H](C)Oc1nc(-c2noc3c2CCC[C@@]32CCCc3sc(N)c(C#N)c32)nc2c1n(C)c(=O)n2[C@@H]1CCCOC1` [II-3]: the pIC50 is 8.70. In turn, `C[C@H](Oc1nc(-c2onc3c2CCC[C@@]32CCCc3sc(N)c(C#N)c32)nc2c1n(C)c(=O)n2[C@@H]1CCOC1)[C@@H]1[C@H](F)CCN1C` [I-4] had a pIC50 of 8.70.

With `CO[C@H]1C[C@H](n2c(=O)n(C)c3c(O[C@@H](C)[C@@H]4CCCN4C)nc(-c4onc5c4CCC[C@@]54CCCc5sc(N)c(C#N)c54)nc32)C1` [I-16], the pIC50 was 8.30.

For `CCn1c(=O)n([C@@H]2CCCOC2)c2nc(-c3onc4c3CCC[C@@]43CCCc4sc(N)c(C#N)c43)nc(OC[C@@]34CCCN3C[C@H](F)C4)c21` [I-33], the pIC50 is 7.66. The value for `CCn1c(=O)n([C@@H]2CCCOC2)c2nc(-c3onc4c3CCC[C@@]43CCCc4sc(N)c(C#N)c43)nc(O[C@@H](C)C34CCCN3CCC4)c21` [I-36] was 8.70. The value for `C[C@H](Oc1nc(-c2noc3c2CCC[C@@]32CCCc3sc(N)c(C#N)c32)nc2c1CN(c1ncccn1)[C@]21CCOC1)[C@@H]1CCCN1C` [II-7a] was 8.70; that for `CO[C@H]1CCN(C)[C@@H]1[C@H](C)Oc1nc(-c2onc3c2CCC[C@@]32CCCc3sc(N)c(C#N)c32)nc2c1n(C)c(=O)n2[C@@H]1CCCOC1` [I-6] was 8.70; that for `C[C@H](Oc1nc(-c2onc3c2CCC[C@@]32CCCc3sc(N)c(C#N)c32)nc2c1n(C)c(=O)n2[C@H]1CCC[C@@H]1O)[C@@H]1CCCN1C` [I-19] was 8.70. In turn, `C[C@H](Oc1nc(-c2onc3c2CCC[C@@]32CCCc3sc(N)c(C#N)c32)nc2c1[nH]c(=O)n2[C@@H]1CCCOC1)[C@@H]1CCCN1C` [I-13] showed a pIC50 of 8.70.
